Experimental data published in patent US20220251071A1, “METHOD TO MAKE SMALL-MOLECULE MURINE DOUBLE MINUTE 2 PROTEIN (MDM2)-DEGRADING COMPOUNDS, COMPOUNDS FORMED THEREBY, AND PHARMACEUTICAL COMPOSITIONS CONTAINING THEM” (Wisconsin Alumni Research Foundation, priority 2019, published 2022).

Legend:
RS4;11 cells [1] = test: MTT cell viability (anti-proliferation) assay; format: cell-based, human; details: for IC50: Homo sapiens, RS4-11, MTT assay, 48 h incubation, read-out: IC50, inhibition of growth/proliferation of RS4;11 cells; for anti-proliferation effect, rank in screen / anti-proliferation potency relative to parent MDM2 inhibitor: RS4;11 cells; for anti-proliferation effect, rank in screen: compounds tested at 100 nM; for anti-proliferation potency relative to parent MDM2 inhibitor: 20 vs 1, 32 vs (4S, 5R)-1
Method: The “MTT assay” is a colorimetric assay for assessing cellular metabolic activity. NAD(P)H-dependent cellular oxidoreductase enzymes reflect the number of viable cells present. These enzymes are capable of reducing the tetrazolium dye 3-(4,5-dimethylthiazol-2-yl)-2,5-diphenyltetrazolium bromide (“MTT”) to its insoluble formazan, which has a purple color and whose concentration is then measured spectrophotometrically. The MTT assay is conventional and well known. See, for example, Stockert et al. (2018) “Tetrazolium salts and formazan products in Cell Biology: Viability assessment, fluorescence imaging, and labeling perspectives,” Acta Histochemica 120: 159-167. As used herein, “MTT assay” refers broadly to the MTT assay itself and to the well-known variations of it that use structurally related tetrazolium salts (e.g., XTT, MTS, etc.).
(§1) The human acute leukemia RS4;11 cell line was purchased from American Type Culture Collection (ATCC Accession No. CRL-1873), and cultured in RPMI-1640 media (Corning Incorporated (USA), One Riverfront Plaza, Corning, N.Y. 14831) supplemented with 10% fetal bovine serum (FBS), 1% sodium pyruvate, 1% penicillin/streptomycin, and 10 mM HEPES at 37° C. under a humidified 5% CO2 atmosphere. The experiments were performed by using cells with 8-20 passages after purchasing.
Cells were seeded in a 96-well cell culture plate at a density of 2×10^4 cells with 90 μL cell culture media overnight. The cells were then treated with the indicated dose of compounds, respectively, and incubated at 37° C. under a humidified 5% CO2 atmosphere for 48 h. After the incubation, the cells were treated with 10 μL of MTT solution (5 mg/mL) and incubated with another 4 h, followed by the addition of 100 μL of solubilizing solution. The plate was placed on the shaker for overnight at room temperature until the formazan were entirely dissolved. The plate was scanned at 570 nm and 690 nm. The absorbance was normalized to the DMSO-treated cells, and the IC50 was calculated by non-linear regression analysis using GraphPad Prism 6 software.

MDM2 = target: T1, MDM2 (Homo sapiens, UniProt Q00987); test: Western blot of MDM2 degradation and downstream proteins; format: cell-based; details: for MDM2 degradation at 100 nM, 20 compared with 32: identical conditions; for MDM2 degradation (Western blot): RS4;11 leukemia cells, data not shown
T1 construct: endogenous in cells; host or cells: RS4;11 (ATCC CRL-1873)
T1 sequence (Q00987 whole entry): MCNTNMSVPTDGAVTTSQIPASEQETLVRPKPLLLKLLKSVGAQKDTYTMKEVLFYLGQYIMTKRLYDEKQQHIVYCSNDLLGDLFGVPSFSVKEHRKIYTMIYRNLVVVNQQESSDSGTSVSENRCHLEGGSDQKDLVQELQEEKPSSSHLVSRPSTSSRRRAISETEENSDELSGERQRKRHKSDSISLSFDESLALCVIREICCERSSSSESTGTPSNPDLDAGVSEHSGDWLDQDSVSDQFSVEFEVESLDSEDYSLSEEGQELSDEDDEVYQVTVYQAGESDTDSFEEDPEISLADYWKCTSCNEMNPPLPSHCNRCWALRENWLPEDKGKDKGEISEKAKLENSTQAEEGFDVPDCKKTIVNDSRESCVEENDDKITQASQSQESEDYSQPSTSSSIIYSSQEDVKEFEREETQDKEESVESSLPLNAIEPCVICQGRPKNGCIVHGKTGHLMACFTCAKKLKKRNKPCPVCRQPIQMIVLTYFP
Method: as §1
Cells were treated with the indicated concentrations of compounds under the indicated time. Cells were collected and lysed with RIPA buffer (Corning) after being washed with cold PBS twice. The supernatant was collected after centrifugation at 16,000×g at 4° C. for 15 min. The protein concentration was measured with BCA (bicinchoninic acid) method. (Smith, P. K., et al. (1985) “Measurement of protein using bicinchoninic acid,” Anal. Biochem. 150(1):76-85.) The protein expressed in the whole cell lysates was identified by Western Blot. A quantity of 40 μg protein per sample was loaded and then separated by SDS-PAGE. Proteins in the gel was transferred to polyvinylidene fluoride (PVDF) membranes, then blocked with 5% non-fat milk, and probed with the primary antibodies at 4° C. overnight. The primary antibodies are as following: MDM2 (D1V2Z) (1:1000), p53 (DO-7) (1:1000), PARP (46D11) (1:1000), Caspase-3 (1:1000), and p21 Waf1/Cip 1(12D1) (1:1000), all of which were purchased from Cell Signaling Technology, Inc., 3 Trask Lane, Danvers, Mass. 01923, along with a-Tubulin (1:1000) and β-Actin (1:1000), which were purchased from R&D Systems, Inc., 614 McKinley Place NE, Minneapolis, Minn. 55413. The membrane was washed with TBS-T 3 times, and incubated with HRP-linked secondary antibodies for 1 h at room temperature, followed by washing with TBS-T. The membrane was incubated with ECL (Bio-rad) for 5 min. The protein band was visualized by using a Bio-Rad Chemi-Doc MP imaging system. The intensity of the band was measured by Image J software.

[2] = tested on: p53 transcriptional activity (MDM2, TP53, CDKN1A mRNA); test: qRT-PCR of mRNA levels of p53 target genes; format: cell-based, human; details: RS4;11 cells, 6 h; for transcription of p53 targeted genes MDM2 and CDKN1A (p21): (4S,5R)-1 at 1 PM as printed, 32 at 100 nM
Method: Total RNA was extracted using GeneJET RNA Purification Kit (Thermo Scientific) and titrated by SYNERGY H1 Hybrid Multi-Mode Reader (BioTek) at 260 nm. 1 μg of total RNA was subjected to reverse transcription using High-Capacity cDNA Reverse Transcription Kit (appliedbiosystems). Quantitative RT-PCR was performed using PowerUp™ SYBR™ Green Master Mix (appliedbiosystems) and the amplification detected in a QuantStudio 7 Flex Real-Time PCR System (ThermoFisher Applied Biosystems).

RS4;11 cells [3] = test: Flow cytometry apoptosis, Annexin V / PI staining; format: cell-based, human; details: 24 h, 100 nM or 1 μM
Method: Cells were seeded in a 6 cm circular cell culture dish at a density of 5×10^6 cells. After being settled overnight, the cells were treated with the indicated concentrations of compounds for 24 h. The collected cells were double stained with FITC Annexin V and PI according to the manufacturer's protocols. The apoptosis was analyzed using a FITC Annexin V apoptosis detection kit (556547, BD Biosciences, 2350 Qume Drive, San Jose, Calif. 95131).

p53 = details: xenograft tumor tissues; cited from earlier work

Row | SMILES | IC50 (RS4;11 cells [1]) [nM] | MDM2 degradation (Western blot) (MDM2) | anti-proliferation effect, rank in screen (RS4;11 cells [1]) | anti-proliferation potency relative to parent MDM2 inhibitor (RS4;11 cells [1]) | MDM2 degradation at 100 nM, 20 compared with 32 (MDM2; RS4;11 cells) | effect on TP53 mRNA [2] | transcription of p53 targeted genes MDM2 and CDKN1A (p21) [2] | other results
1 | CCOc1cc(C(C)(C)C)ccc1C1=N[C@@H](c2ccc(Cl)cc2)[C@@H](c2ccc(Cl)cc2)N1C(=O)N1CCNCC1 [(4S, 5R)-1, ((4S,5R)-2-(4-(tert-butyl)-2-ethoxyphenyl)-4,5-bis(4-chlorophenyl)-4,5-dihydro-1H-imidazol-1-yl)(piperazin-1-yl)methanone] | – | – | – | – | – | Neither MDM2 ligand (4S, 5R)-1 nor degrader 32 has any effect on TP53 | upregulated | –
2 | CCOc1cc(C(C)(C)C)ccc1C1=NC(c2ccc(Cl)cc2)C(c2ccc(Cl)cc2)N1C(=O)N1CCN(C(=O)CCC#Cc2cccc3c2CN(C2CCC(=O)NC2=O)C3=O)CC1 (centres unmarked) [Compound 7, 3-(4-(5-(4-(2-(4-(tert-butyl)-2-ethoxyphenyl)-4,5-bis(4-chlorophenyl)-4,5-dihydro-1H-imidazole-1-carbonyl)piperazin-1-yl)-5-oxopent-1-yn-1-yl)-1-oxoisoindolin-2-yl)piperidine-2,6-dione] | – | degrade significant amounts of MDM2 | – | – | – | – | – | –
3 | CC(C)(C)C[C@@H]1N[C@@H](C(=O)N[C@H]2CC[C@H](O)CC2)[C@H](c2cccc(Cl)c2F)[C@]12C(=O)Nc1cc(Cl)ccc12 [SAR405838] | – | – | – | – | – | – | – | duration of p53 accumulation after a single dose (p53): only induced a few hours of p53 accumulation

Continued, in another order:

Row | IC50 (RS4;11 cells [1]) [nM] | MDM2 degradation (Western blot) (MDM2) | SMILES | anti-proliferation effect, rank in screen (RS4;11 cells [1]) | anti-proliferation potency relative to parent MDM2 inhibitor (RS4;11 cells [1]) | MDM2 degradation at 100 nM, 20 compared with 32 (MDM2; RS4;11 cells) | effect on TP53 mRNA [2] | transcription of p53 targeted genes MDM2 and CDKN1A (p21) [2] | other results
4 | 7.2 | degrade significant amounts of MDM2 | CCOc1cc(C(C)(C)C)ccc1C1=NC(c2ccc(Cl)cc2)C(c2ccc(Cl)cc2)N1C(=O)N1CCN(CC#Cc2cccc3c2CN(C2CCC(=O)NC2=O)C3=O)CC1 (racemic) [Compound 20, 3-(4-(3-(4-(2-(4-(tert-butyl)-2-ethoxyphenyl)-4,5-bis(4-chlorophenyl)-4,5-dihydro-1H-imidazole-1-carbonyl)piperazin-1-yl)prop-1-yn-1-yl)-1-oxoisoindolin-2-yl)piperidine-2,6-dione] | most potent inhibitor of RS4;11 | ~1,000 fold | significant degradation of MDM2 was observed | – | – | –
5 | – | degrade significant amounts of MDM2 | C=C1NC(=O)CCC1N1Cc2c(C#CCCCC(=O)NCC(=O)N3CCN(C(=O)N4C(c5ccc(C(C)(C)C)cc5OCC)=NC(c5ccc(Cl)cc5)C4c4ccc(Cl)cc4)CC3)cccc2C1=O (centres unmarked) [Compound 15, N-(2-(4-(2-(4-(tert-butyl)-2-ethoxyphenyl)-4,5-bis(4-chlorophenyl)-4,5-dihydro-1H-imidazole-1-carbonyl)piperazin-1-yl)-2-oxoethyl)-6-(2-(2-methylene-6-oxopiperidin-3-yl)-1-oxoisoindolin-4-yl)hex-5-ynamide] | – | – | – | – | – | –
6 | 3.2 | degrade significant amounts of MDM2 | CCOc1cc(C(C)(C)C)ccc1C1=N[C@@H](c2ccc(Cl)cc2)[C@@H](c2ccc(Cl)cc2)N1C(=O)N1CCN(CC#Cc2cccc3c2CN(C2CCC(=O)NC2=O)C3=O)CC1 (stereo partly drawn) [Compound 32, 3-(4-(3-(4-((4S,5R)-2-(4-(tert-butyl)-2-ethoxyphenyl)-4,5-bis(4-chlorophenyl)-4,5-dihydro-1H-imidazole-1-carbonyl)piperazin-1-yl)prop-1-yn-1-yl)-1-oxoisoindolin-2-yl)piperidine-2,6-dione] | most potent compound as compared to 33 and 34 | ~1,000 fold | superior | Neither MDM2 ligand (4S, 5R)-1 nor degrader 32 has any effect on TP53 | more significant transcriptional upregulation | apoptosis induction, Annexin V-positive cells (RS4;11 cells [3]): A large number of cells were identified in Annexin V-positive quadrants; MDM2 degradation on co-treatment with MDM2 ligand (4S, 5R)-1 or CRBN ligand lenalidomide (MDM2; 32 at 100 nM, competitor 5 μM): significantly reduced; reversibility of MDM2 downregulation after washout (MDM2; 12 h treatment, then fresh medium): reversible; MDM2 degradation on co-incubation with proteasome inhibitor MG132 (MDM2; MG132 5 PM as printed): the degradation of MDM2 ceased; MDM2 and p53 protein levels (MDM2; RS4;11 cells, 100 nM or 1 μM): MDM2 depleted and p53 was stabilized and upregulated; cleavage of PARP and Caspase-3 (MDM2; RS4;11 cells, 100 nM or 1 μM): cleaved PARP and Caspase-3 were observed; p21 protein level (MDM2; RS4;11 cells, 100 nM or 1 μM): increased level of p21; Dmax at 0.1 µM (MDM2; RS4;11 cells, 24 h, observed at 100 nM, read-out: maximal level of MDM2 degradation (Dmax)): 90%; DC50 (MDM2; RS4;11 cells, 24 h incubation, read-out: concentration at which 50% MDM2 degradation was detected (DC50)): 23 nM; time after washout without return of MDM2 to pre-treatment levels (MDM2; RS4;11 cells, after removal of degrader): > 48 h; time at which MDM2 degradation was first observed (MDM2; RS4;11 cells, time course): 1 h; time at which cleaved PARP was observed (MDM2; RS4;11 cells, time course): 6 h
